Patent publication US20090264492A1, “PHARMACEUTICAL COMPOSITION FOR THE TREATMENT OF A FUNGAL SKIN DISORDER AND A METHOD FOR THE PREPARATION THEREOF” (Stichting Voor de Technische Wetenschappen, priority 2006, published 2009)

Assays:
[1] = system: the fungus cultivated in suspension; experiment: binding of Sylsens B to the fungus cultivated in suspension / photodynamic effect with competing cations; type: cell-based, T. rubrum; conditions: in the presence of 5 mM CaCl2 at pH 5.2
Experimental: In the above experiments, deuteroporphyrin monomethylether (DP mme), an anionic porphyrin, was used as a control. […] The effect of calcium-ions was investigated by determining the photodynamic effect in the presence of 5 mM CaCl2 at pH 5.2. […] So, PDT may even be used to inactivate (kill) the growing fungus if measures are taken to prevent naturally present calcium from interfering with the treatment, in particular by using a chelating compound such as EDTA.

T. rubrum = experiment: PDT of T. rubrum on human stratum corneum (ex-vivo model), fungicidal effect; type: cell-based, Trichophyton rubrum; conditions: for relative frequency of the fungicidal effect: read day 8; for MIC (Minimum Inhibitory Concentration): 2 h incubation in water, 1 h 30 mW/cm^2 red light
Experimental: A polycarbonate membrane filter, 25 mm in diameter and a pore size of 2 μm (Whatman, Breda, The Netherlands) was placed in the central part of a 3 cm culture dish (Greiner, Alphen aan den Rijn, The Netherlands) filled with 5 ml of Malt Extract Agar (MEA). A circular piece of human stratum corneum (SC) with a diameter of 1 cm was subsequently placed on the membrane filter and both were gently brushed with a paintbrush dipped in 70% ethanol. A microconidia suspension isolated from Trichphyton rubrum (CBS nr. 304.60 obtained from Centraal Bureau voor Schimmelcultures, Utrecht, The Netherlands, and prepared as described by Smijs G. M. T. et al (2004) in “Photodynamic treatment of the dermatophyte Trichophyton Rubrum and its microconidia with porphyrin sensitizers. PhotoChemistry and PhotoBiology, 80, 197 - 202”) was diluted to 1000 CFU/ml and 15 μl was inoculated on the circular sheet of human SC. The dish was placed in an incubator at 28° C. and at 17 hours after spore inoculation photodynamic treatment (PDT) was applied.
At 17 hours after spore inoculation, the membrane filter with SC containing spore inoculates was transported from the MEA dish to a 3 cm culture dish filled with 1035 μl incubation medium. The incubation medium contained 1 ml of distilled water with an adjusted pH (3.5, 4.5, 5.2, or 7.4) and 35 μl of a Sylsens B stock solution (Buchem, Apeldoorn, the Nederland) . To optimize the contact of the inoculates with the incubation medium, the membrane filter with the SC was turned upside down during the incubation period of 2 hours. The incubation was performed under continuous shaking conditions. Shortly before the illumination period the membrane filter containing the SC was turned back (surface SC now faces the lamp). In all cases, the illumination time was 1 hour using a red light irradiance of 30 mW/cm^2. This corresponds to a light dose of 108 J/cm^2. After the illumination the membrane filter with the SC were transported to a fresh MEA dish, placed in a 28° C. incubator and fungal growth was followed for several weeks. Dark controls were included, i.e. the same procedure was carried out except that the inoculated microconidia on human skin were treated with solvent and/or photosensitizer in the dark. In the light controls, the microconidia were treated with solvent (only) in the presence of light. The efficacy of the treatment was expressed as a relative frequency of complete inactivation (killing) of fungal growth detected at day 8 after spore inoculation. This was assessed microscopically with the use of a Zeiss Axiovert 25 (Germany). […] The treatment effect was followed for a period of several months. Every experiment contained 4 to 6 duplicates of all conditions and the experiments were repeated 3 times at least.
PDT of T. rubrum 17 hours after spore inoculation using the ex-vivo model, different concentrations of Sylsens B and a different pH (water medium). The numbers indicate the relative frequency of the fungicidal effect^1. Numbers between brackets give the number of tests performed.
The experiment with Sylsens B was repeated more extensively, for a longer period of time and with more samples. More specifically, the photodynamic efficacy of Sylsens B towards T. rubrum was tested at 17 (FIG. 2a), 48 (FIG. 2b) and 72 hours (FIG. 2c) after spore inoculation on human SC, at the following incubation pH values: Filled diamonds: pH 3.5, filled squares: pH 5.2 and filled triangles: pH 7.4.

[2] = production of 1O2 over the pH range; type: physicochemical; conditions: over the pH range used

In the case of C[n+]1ccc(-c2c3nc(c(-c4cc[n+](C)cc4)c4ccc([nH]4)c(-c4cc[n+](C)cc4)c4nc(c(-c5ccccc5)c5ccc2[nH]5)C=C4)C=C3)cc1.[Cl-].[Cl-].[Cl-] [Sylsens B, 5,10,15-tris(4-methylpyridinium)-20-phenyl-[21H,23H]-porphine trichloride], the “binding of Sylsens B to the fungus” value [1] is reported as “eliminated binding”, the “relative frequency of the fungicidal effect” value (shortened to “relative frequency”) (T. rubrum; 0.5 μM, pH 3.5, illuminated, PDT 17 h after spore inoculation) is reported as 0 (6) and the “relative frequency” value (T. rubrum; 0.5 μM, pH 5.2, illuminated, PDT 17 h after spore inoculation) is reported as 0 (3). The “relative frequency” value (T. rubrum; 0.5 μM, pH 7.4, illuminated, PDT 17 h after spore inoculation) was 0 (6), the “relative frequency” value (T. rubrum; 1 μM, pH 3.5, dark control, 17 h after spore inoculation) was 0 (2) and the “relative frequency” value (T. rubrum; 1 μM, pH 3.5, illuminated, 17 h after spore inoculation) was 0 (6). For the same compound, the “relative frequency” value (T. rubrum; 1 μM, pH 5.2, dark control, 17 h after spore inoculation) was 0 (2), the “relative frequency” value (T. rubrum; 1 μM, pH 5.2, illuminated, 17 h after spore inoculation) was 0 (3) and the “relative frequency” value (T. rubrum; 1 μM, pH 7.4, dark control, 17 h after spore inoculation) was 0 (2). For the same compound, the “relative frequency” value (T. rubrum; 1 μM, pH 7.4, illuminated, 17 h after spore inoculation) was 0 (6), the “relative frequency” value (T. rubrum; 5 μM, pH 3.5, dark control, 17 h after spore inoculation) was 0 (2) and the “relative frequency” value (T. rubrum; 5 μM, pH 3.5, illuminated, 17 h after spore inoculation) was 0.2 (10). The “relative frequency” value (T. rubrum; 5 μM, pH 5.2, dark control, 17 h after spore inoculation) was 0 (4), the “relative frequency” value (T. rubrum; 5 μM, pH 5.2, illuminated, 17 h after spore inoculation) was 0.43 (7) and the “relative frequency” value (T. rubrum; 5 μM, pH 7.4, dark control, 17 h after spore inoculation) was 0 (6). The “relative frequency” value (T. rubrum; 5 μM, pH 7.4, illuminated, 17 h after spore inoculation) was 0.4 (12), the “relative frequency” value (T. rubrum; 6 μM, pH 3.5, illuminated, 17 h after spore inoculation) was 0.5 (2) and the “relative frequency” value (T. rubrum; 6 μM, pH 5.2, illuminated, 17 h after spore inoculation) was 1 (4). The “relative frequency” value (T. rubrum; 6 μM, pH 7.4, dark control, 17 h after spore inoculation) was 0 (6), the “relative frequency” value (T. rubrum; 6 μM, pH 7.4, illuminated, 17 h after spore inoculation) was 0.2 (12) and the “relative frequency” value (T. rubrum; 7 μM, pH 5.2, illuminated, 17 h after spore inoculation) was 1 (4). For the same compound, the “relative frequency” value (T. rubrum; 8 μM, pH 3.5, illuminated, 17 h after spore inoculation) was 0.75 (4), the “relative frequency” value (T. rubrum; 8 μM, pH 5.2, illuminated, 17 h after spore inoculation) was 1 (4) and the “relative frequency” value (T. rubrum; 8 μM, pH 7.4, dark control, 17 h after spore inoculation) was 0 (6). The “relative frequency” value (T. rubrum; 8 μM, pH 7.4, illuminated, 17 h after spore inoculation) was 0.6 (12), the “relative frequency” value (T. rubrum; 9 μM, pH 5.2, illuminated, 17 h after spore inoculation) was 1 (4) and the “relative frequency” value (T. rubrum; 10 μM, pH 3.5, dark control, 17 h after spore inoculation) was 0 (2). The “relative frequency” value (T. rubrum; 10 μM, pH 3.5, illuminated, 17 h after spore inoculation) was 0.8 (10), the “relative frequency” value (T. rubrum; 10 μM, pH 5.2, dark control, 17 h after spore inoculation) was 0 (4) and the “relative frequency” value (T. rubrum; 10 μM, pH 5.2, illuminated, 17 h after spore inoculation) was 1 (9). The “relative frequency” value (T. rubrum; 10 μM, pH 7.4, dark control, 17 h after spore inoculation) was 0 (6), the “relative frequency” value (T. rubrum; 10 μM, pH 7.4, illuminated, 17 h after spore inoculation) was 0.6 (12) and the “relative frequency” value (T. rubrum; 15 μM, pH 3.5, illuminated, 17 h after spore inoculation) was 1 (4). The “relative frequency” value (T. rubrum; 15 μM, pH 5.2, illuminated, 17 h after spore inoculation) was 1 (4), the “relative frequency” value (T. rubrum; 15 μM, pH 7.4, dark control, 17 h after spore inoculation) was 0.5 (6) and the “relative frequency” value (T. rubrum; 15 μM, pH 7.4, illuminated, 17 h after spore inoculation) was 0.7 (12). The “relative frequency” value (T. rubrum; 20 μM, pH 3.5, dark control, 17 h after spore inoculation) was 0 (2), the “relative frequency” value (T. rubrum; 20 μM, pH 3.5, illuminated, 17 h after spore inoculation) was 1 (4) and the “relative frequency” value (T. rubrum; 20 μM, pH 5.2, dark control, 17 h after spore inoculation) was 0 (2). The “relative frequency” value (T. rubrum; 20 μM, pH 7.4, dark control, 17 h after spore inoculation) was 0.3 (6), the “relative frequency” value (T. rubrum; 20 μM, pH 7.4, illuminated, 17 h after spore inoculation) was 0.6 (12) and the “relative frequency” value (T. rubrum; 30 μM, pH 3.5, dark control, 17 h after spore inoculation) was 0.5 (2). For the same compound, the “relative frequency” value (T. rubrum; 30 μM, pH 3.5, illuminated, 17 h after spore inoculation) was 1 (4), the “relative frequency” value (T. rubrum; 30 μM, pH 5.2, dark control, 17 h after spore inoculation) was 1 (2) and the “relative frequency” value (T. rubrum; 30 μM, pH 5.2, illuminated, 17 h after spore inoculation) was 1 (5). For the same compound, the “relative frequency” value (T. rubrum; 30 μM, pH 7.4, dark control, 17 h after spore inoculation) was 0.3 (6), the “relative frequency” value (T. rubrum; 30 μM, pH 7.4, illuminated, 17 h after spore inoculation) was 0.6 (12) and the “relative frequency” value (T. rubrum; 40 μM, pH 3.5, illuminated, 17 h after spore inoculation) was 1 (4). For the same compound, the “relative frequency” value (T. rubrum; 40 μM, pH 7.4, dark control, 17 h after spore inoculation) was 0 (6), the “relative frequency” value (T. rubrum; 40 μM, pH 7.4, illuminated, 17 h after spore inoculation) was 1 (12) and the “relative frequency” value (T. rubrum; 50 μM, pH 3.5, dark control, 17 h after spore inoculation) was 0.5 (2). For the same compound, the “relative frequency” value (T. rubrum; 50 μM, pH 3.5, illuminated, 17 h after spore inoculation) was 1 (10), the “relative frequency” value (T. rubrum; 50 μM, pH 5.2, dark control, 17 h after spore inoculation) was 1 (2) and the “relative frequency” value (T. rubrum; 50 μM, pH 5.2, illuminated, 17 h after spore inoculation) was 1 (3). For the same compound, the “relative frequency” value (T. rubrum; 50 μM, pH 7.4, dark control, 17 h after spore inoculation) was 0.5 (6), the “relative frequency” value (T. rubrum; 50 μM, pH 7.4, illuminated, 17 h after spore inoculation) was 0.9 (12) and the “relative frequency” value (T. rubrum; 65 μM, pH 3.5, dark control, 17 h after spore inoculation) was 1 (2). The “relative frequency” value (T. rubrum; 65 μM, pH 3.5, illuminated, 17 h after spore inoculation) was 1 (4), the “relative frequency” value (T. rubrum; 65 μM, pH 7.4, dark control, 17 h after spore inoculation) was 1 (6) and the “relative frequency” value (T. rubrum; 65 μM, pH 7.4, illuminated, 17 h after spore inoculation) was 1 (12). The “relative frequency” value (T. rubrum; 80 μM, pH 3.5, dark control, 17 h after spore inoculation) was 0.5 (4), the “relative frequency” value (T. rubrum; 80 μM, pH 3.5, illuminated, 17 h after spore inoculation) was 1 (8) and the “relative frequency” value (T. rubrum; 80 μM, pH 5.2, dark control, 17 h after spore inoculation) was 1 (2). For the same compound, the “relative frequency” value (T. rubrum; 80 μM, pH 5.2, illuminated, 17 h after spore inoculation) was 1 (3), the “relative frequency” value (T. rubrum; 80 μM, pH 7.4, dark control, 17 h after spore inoculation) was 1 (6) and the “relative frequency” value (T. rubrum; 80 μM, pH 7.4, illuminated, 17 h after spore inoculation) was 1 (12). For the same compound, the “cfu in dark controls” value (T. rubrum; 17-hour stage after spore inoculation) was 8 to 12 cfu, the “cfu in dark controls” value (T. rubrum; 48-hour and 72 hour stage, concentrations higher than 80 μM) was 5 to 8 cfu and the “cfu in dark controls” value (T. rubrum; 48-hour and 72 hour stage, up to 80 μM Sylsens B) was 8 to 12 cfu. The “MIC (Minimum Inhibitory Concentration)” value (T. rubrum; pH 5.2, PDT 17 h after spore inoculation) was 5 to 6 µM, the “MIC (Minimum Inhibitory Concentration)” value (T. rubrum; pH 7.4, PDT 17 h after spore inoculation) was “≧50 μM” and the “production of 1O2” value [2] was “substantially constant”.
